For data set [1], the system named is non-enzymic glycation. Description: Anti-glycation activity. The class given is biochemical.
The test system of data set [2] is MRC-5 cells. Description: Uptake of radio-labeled (3H) compounds by MRC-5 fibroblast cells. Particulars: after 48 hours.
Description: For MRC-5 cells, (3H)—carnosine and acetyl carnosine were added to the medium of near confluent 60mm culture dishes. At different time points cells were washed three times with phosphate buffered saline, cells harvested and cell-associated radioactivity determined using Packard Starscint scintillation fluid.
The rate of uptake of carnosine and acetyl-carnosine by MRC-5 cells was studied using radio-labeled tritiated (3H) carnosine and acetyl-carnosine compounds. The uptake was measured in MRC-5 cells at passage 28 over a 48 hour period (FIG. 3A).
Data set [3] deals with MRC-5 cells. The data set is described as follows: Lifespan (population doublings) of MRC-5 cells in culture. Format: cell-based, human. The procedure: Cultures were split in a 1:4 ratio when flasks were approximately 70-80% confluent.
(§1) MRC -5 cells (fetal lung fibroblasts) were grown in Dulbecco's modification of Eagles' minimum essential medium (DMEM Gibco BRL Cat. No. 12800-017) containing 0.45% glucose, or MEM (Gibco BRL Cat. No. 612800-017) containing 0.1% glucose. Both media contained 10% fetal calf scrum (TRACE Biosciences Cat. No. 15-010-0500V) and Penicillin/Streptomycin 5000 IU, 5000 μg/ml (TRACE Biosciences Cat. No. 21-140-0100V). Cells were grown in […] flasks or in dishes (35 mm or 60 mm, Nunc) at 37° C. with 5% CO2. Cells were harvested with trypsin (TRACE Biosciences Cat. No. 21-163-0100V) and counted with a model ZF6 Coulter Counter. Cells were split in ratios of 1:2 or 1:4. Population doublings (PDs) were calculated from the ratio of the initial number of cells plated to the yield of cells after a period of time. This provides an accurate measure of cell growth, with the split ratios 1:2 and 1:4 corresponding to one and two passages respectively, which are broadly equivalent to population doublings. The media was changed every 5 days or when cells became confluent.
MRC-5 cells were used to observe the toxicity of a series of derivatives of carnosine on cell growth. Cell cultures were grown in DMEM media with 10% fetal calf serum and supplemented with the following carnosine analogues: carnosine ethyl ester, carnosine iso-propyl ester, carnosine n-butyl ester, carnosine n-hexyl ester, N-propyl carnosine, N-hexanoyl carnosine, N-trimethyl acetyl carnosine, N-acetyl carnosine methyl ester, N-acetyl carnosine ethyl ester and N-acetyl carnosine, at concentrations ranging between 1 mM to 20 mM. Cells were also grown in DMEM supplemented with carnosine at 20 mM. […] Even at lower concentrations cell morphology was that of cells that have reached senescence i.e. broad flat cells with long process reaching out to other cells. Cell numbers were less than in the control flasks. […] As shown in FIG. 1 Acetyl-carnosine achieved a lifespan 5 PDs greater than the control and 6.7 PDs greater than carnosine over a 43 day period. […] In the early phase of the experiment growth rates were markedly greater than with the other compounds (FIG. 1).
In fact all populations of MRC-5 cells grown in DMEM supplemented with acetyl-carnosine preserved a younger phenotype for much longer than cells grown in DMEM supplemented with carnosine or its analogues.
Under control conditions the range was 57.3-64.5 PDs (n=5). With the addition of carnosine (20mM) to the medium the range was 61.8-63.7 PDs (n=5) with an average increase of 1.4 PDs which represents a 3 fold increase in cell number. However, when acetyl-carnosine (5 mM) was added to the medium, the range was 62.3-70.3 PDs (n=5) with an average increase of 5 PDs compared with the controls. This represents a 32 fold increase in cell number.

Data set [4] has as its system senescent MRC-5 cells. The data set is described as follows: Rejuvenation of senescent MRC-5 cells (morphology). The class given is cell-based, human. The conditions noted are these: media supplemented with the compound, FIG. 4. The procedure:
as §1
It was shown above that acetyl-carnosine markedly delayed the onset of senescence by increasing the lifespan of MRC-5 cells in culture. This was confirmed by rejuvenation experiments (FIG. 4). The morphology of cells grown in media supplemented with acetyl-carnosine was distinct from the controls. […]

As for `CC(=O)NCCC(=O)N[C@@H](Cc1cnc[nH]1)C(=O)O` [N-acetyl carnosine], the “Effectiveness as an antiglycation agent” value in data set [1] is reported as “ineffective”. For the same compound, in data set [2] (MRC-5 cells), the “Number of cells greater than with carnosine” value turned out to be 42%, the “Number of cells growing in supplemented media” value is recorded as 3.4×10^6 and the “Uptake relative to carnosine on a per cell basis” value worked out at 35%. In addition, in data set [2] (cells at passage 28), the “Uptake of (3H) compound by MRC-5 cells” value is on record as 0.16%. Also, in data set [3] (5 mM in medium, n=5), the “Range of lifespans of populations of MRC-5 cells” value is listed as 62.3-70.3 PDs. Besides, the “Lifespan greater than carnosine” value in data set [3] (5 mM vs carnosine 20 mM, passage 55 cells, over a 43 day period) is 6.7 PDs. Besides, the “Lifespan of MRC-5 cells in culture, Population Doublings (PD)” value in data set [3] (5 mM, commenced at passage 55) turned out to be 15.2 PD. For the same compound, the “Average increase in lifespan compared with controls” value in data set [3] (5 mM, n=5) worked out at 5 PDs. Besides, the “Lifespan greater than the control” value in data set [3] (5 mM, passage 55 cells, over a 43 day period) was found to be 5 PDs. Moreover, in data set [3] (5 mM, worked out from the PD increase), the “Increase in cell number” value came to 32 fold. Also, the “Lifespan of MRC-5 cells compared with carnosine (FIG. 2)” value in data set [3] (acetyl-carnosine 5 mM vs carnosine 20 mM, commenced at passage 32) was “markedly increased the lifespan”. Besides, in data set [3] (cells exposed to supplemented media), the “Increase in cell mass” value was 32 fold. In data set [4], the “Morphology of cells in rejuvenation experiment” value is given as “phenotype typical of younger cells”.

The values are drawn from patent US20040014814A1, “Compositions and methods for delaying preventing rejuvenating or reversing senescence in cells” (priority 2000, published 2004).
